The structures appear in SMILES notation.

In the case of `Cc1nc(N)c2nc(C)n(CCCN)c2c1C`, the melting point is 192 °C.

In the case of `Cc1nc2c(N)nc3ccccc3c2n1CCCCC(=O)N1CCOCC1`, the melting point is 218 to 219 °C.

For the compound `CC(O)c1cnc2c(-c3cc(-c4ccccc4)cs3)cnn2c1O` (stereo not drawn), the melting point lay in the range of 262 to 285 °C.

`CC1OC(c2cc(-n3c(=O)cc(C(F)(F)F)n(C)c3=O)ccc2Cl)OC1C` (stereo not drawn) gave a melting point of 149 to 151 °C.

`Cc1oc(-c2ccccc2)nc1CCOc1ccc(C[C@H](Nc2ccccc2C(=O)c2ccccc2)C(=O)O)cc1` displayed a melting point of 85 to 90 °C.

Compound `CC1(C)SCc2ccccc2C1=NO` came in with a melting point of 83 to 84 °C.

Turning to `O=C(Nc1ccc(Br)c(Br)c1[N+](=O)[O-])C(F)(F)F`, the melting point was 107 to 109 °C.

`COc1ccccc1Oc1c(O)nc(SC)nc1O`: the melting point is 206 to 210 °C.

Turning to `CC(C)Cn1c(CO)c(-c2ccc(Cl)cc2)c2cc(OCc3ccccc3)ccc2c1=O`, the melting point lay within 87 to 88 °C.

Compound `Fc1ccc2[nH]c3c(c2c1)CN(CCc1ccccn1)CC3` displayed a melting point of 199 to 201 °C.

The compound `COC(=O)c1c(Cl)nc2cc3c(cc2c1CCl)OCCO3` came in with a melting point of 130 to 132 °C.

In turn, `CC1CCCNC(=O)C1` (stereo not drawn) yielded a melting point of 87 to 100 °C.

Compound `CC(C)NC(=O)Nc1ccnnc1` came in with a melting point of 206 to 209 °C.

In turn, `CCOC(=O)/C=C/c1c(-c2ccccc2)c2ccccc2c(=O)n1C` came in with a melting point of 163 to 165 °C.

The compound `COc1cc(COc2nn(-c3ccccc3)cc2C=O)ccc1OCc1csc(N2CCOCC2)n1` yielded a melting point of 128 to 129 °C.

Compound `Oc1ccc2c(c1)C13CCCCC1(Cc1ccccc1)C(C2)N(CC1CC1)CC3` (stereo not drawn) registered a melting point greater than 280 °C.

As to `O=C(C=Cc1cccnc1)NCCCCC1CCN(C(=O)c2cccc3c2-c2ccccc2C3=O)CC1`, the melting point is 80 to 82 °C.

In turn, `COc1ccc(C(=O)NCCCCCCCCNC(=O)c2ccc(OC)cc2)cc1` showed a melting point of 175 to 176 °C.

In turn, `N#CCCNC(=O)c1cccc(-c2cccc3cc(Cc4cccc(C(F)(F)F)c4)[nH]c23)c1` gave a melting point of 174 to 178 °C.

`[N-]=[N+]=NCC1Cc2cc(Cl)cc(-c3ccsc3)c2O1` (stereo not drawn) came in with a melting point of 50 to 52 °C.

In turn, `COc1ccc2c(c1)CCc1nn(-c3nc4ccccc4s3)c(O)c1-2` came in with a melting point of 182 to 183 °C.

As to `CCOC(=O)/C=C/c1ccc(OCC)nc1Oc1ccc(Cl)cc1Cl`, the melting point is 90 to 92 °C.

On to `CC(C)c1ccnc(C(=O)c2[nH]c3cc(Cl)ccc3c2CC(=O)O)c1`, for which the melting point fell in the range of 194 to 196 °C.

Consider `O=C(Nc1cccc(S(=O)(=O)C(F)(F)F)c1)c1cc2ccccc2cc1O`, for which the melting point was 212 to 213 °C.

The compound `CCOC(=O)Nc1ccc2c(c1C=O)OCO2` gave a melting point of 123 °C.

Compound `CC1(C)Oc2cc(Cl)c(C#N)cc2C2OC21` (stereo not drawn) displayed a melting point of 129 to 132 °C.

Consider `COc1cc2c(cc1S(=O)(=O)c1ccc(C)cc1)[C@@H](N1CCCCC1=O)[C@H](O)C(C)(C)O2` (relative stereo), for which the melting point was in the range of 261 to 263 °C.

Regarding `Clc1cccc(-c2cc(Cl)nc3ccc(Br)cc23)c1`, the melting point stood at 125 °C.

Take `CCOc1cc(N)c(Cl)cc1C(=O)NC1CCN(CC2CCN(C(=O)N(C)C)CC2)CC1`: the melting point lay within 203 to 205 °C.

In turn, `Oc1c2c(nn1-c1cc(C(F)(F)F)ccn1)CCc1ccccc1-2` had a melting point of 161 to 162 °C.

In turn, `CN(c1ccc2ccccc2c1)C(C(=O)O)c1c(Cl)cccc1Cl` (stereo not drawn) had a melting point of 144 °C.

As for `COc1ccc(-c2ccc3ccccc3c2C(=O)N(C)C)cc1`, the melting point fell in the range of 194 to 195 °C.

For `CC(=O)Oc1ccc(Br)cc1Cc1cc(Cl)cc(Cc2cc(Br)ccc2O)c1OC(C)=O`, the melting point lay within 190 to 192 °C.

In turn, `CNC(=S)Nc1ccc2c(c1)C(=O)NC(=O)C2(C)C` showed a melting point of 206 to 207 °C.

In turn, `CC(=C1SCCCS1)c1cccnc1` registered a melting point of 34 to 36 °C.

In turn, `Cn1nc(-c2cc(C=C(Cl)C(=O)O)c(Cl)cc2F)c(Cl)c1C(F)(F)F` displayed a melting point of 195 to 196 °C.

Consider `CCCc1nn(-c2ccc(C(F)(F)F)cn2)cc1CCCOc1nn(CC)cc1CC(=O)O`, for which the melting point is 105 to 106 °C.

As to `NC(=O)c1ccc2nc3c(c(=O)n2c1)CCC3=Cc1ccccc1`, the melting point fell in the range of 350 to 357 °C.

In turn, `O=C(OCC1(COC(=O)c2ccccc2)c2ccccc2-c2ccccc21)c1ccccc1` had a melting point of 144 to 146 °C.

In the case of `COc1cc(OC)cc(C2CC=CCC2[N+](=O)[O-])c1` (stereo not drawn), the melting point fell in the range of 73 to 75 °C.

Regarding `Cc1cccc(Nc2nc(-c3ccc(-c4ccccc4)cc3)cs2)n1`, the melting point lay within 218 to 222 °C.

In turn, `CC(=O)N(CC(=O)O)c1ccccc1C(=O)O` came in with a melting point of 206 °C.

With `COC(=O)CC(=O)CC(O)/C=C/C1=C(c2ccc(F)cc2)C=C(c2ccc(F)cc2)CC12CCCC2` (stereo not drawn), the melting point is 96 to 99 °C.

`O=C(O)c1ccccc1C(=O)NCCc1cccnc1`: the melting point was in the range of 183 to 185 °C.

As for `COc1ccc(S(=O)(=O)N2C(=O)C(CC(=O)N3CCN(c4ccccn4)CC3)(c3ccccc3Cl)c3cc(C)ccc32)c(OC)c1` (stereo not drawn), the melting point turned out to be 239 °C.

On to `CON=Cc1cc(Cl)cc(Cl)c1`, for which the melting point came out at 53 °C.

Take `Cc1c(O)c(=O)[nH]c2cc(Cl)ccc2c1=O`: the melting point fell in the range of 277 to 279 °C.

On to `O=C(O)c1cn2c3c(c(Cl)c(F)cc3c1=O)SCC2`, for which the melting point was in the range of 322 to 324 °C.

In the case of `O=C(C#Cc1ccc(C(F)(F)F)cc1Cl)Nc1ccc(OCCn2cnnc2)cc1`, the melting point was in the range of 223 to 227 °C.

`CCOC(=O)C1=CNC2=C(C(=O)Nc3ccccc3)CCN2C1=O` gave a melting point of 240 to 241 °C.

For the compound `CC1(C)COC(c2ccc3c(c2)C(=O)c2ccccc2CO3)=N1`, the melting point amounted to 122 °C.

As to `Cc1ccc(-c2nccc(-c3ccccc3)n2)cc1[N+](=O)[O-]`, the melting point turned out to be 139 °C.

For `COc1ccc(S(=O)(=O)Nc2c(C(=O)O)cc(C#N)c(Cc3ccccc3)c2C)cc1`, the melting point came to 123 °C.

`CCCCc1nc2c(C(=O)O)cccc2n1Cc1ccc(C(=O)O)cc1` came in with a melting point of 250 °C.

`COc1ccc(-c2ccc3[nH]c4ncc(Cl)cc4c3c2)cc1` showed a melting point greater than 220 °C.

With `CCOC(=O)Cc1ccc(NC(=O)C(COS(C)(=O)=O)NS(=O)(=O)c2ccc(Cl)cc2)cc1` (racemic), the melting point is 142 to 143 °C.

Turning to `CCCC(=O)Oc1ccc(C2=NNC(=O)CC2C)cc1` (stereo not drawn), the melting point was 112 to 113 °C.

In the case of `COC(=O)C1OC2(CCC3(CC2)OC(C(=O)OC)C(C(=O)OC)O3)OC1C(=O)OC` (stereo not drawn), the melting point was 75 to 77 °C.

`CCOC(=O)c1cccc(NC(=O)c2ccc(OC)c(NCc3cccs3)c2)c1` gave a melting point of 153 to 155 °C.

Compound `CC1(C)C(=O)Oc2ccc(OS(C)(=O)=O)cc21` yielded a melting point of 120 to 121 °C.

Take `CCCCCCCCCC/C=C\COCc1ccc(CCC(=O)O)cc1`: the melting point was in the range of 35 to 36 °C.

Take `NC(=O)N1C(=O)C(C(=O)c2cccs2)c2ncc(F)cc21` (stereo not drawn): the melting point stood at 265 °C.

`ClCCCOc1ccc(-n2cncn2)cc1`: the melting point was in the range of 81 to 82 °C.

Turning to `CNC(=S)NS(=O)(=O)c1cc(CCNC(=O)c2cc(Cl)ccc2OC)ccc1-c1ccc(Cl)cc1`, the melting point fell in the range of 189 to 192 °C.

For the compound `c1ccc2c(c1)-c1ccccc1C21c2cccnc2-c2ncccc21`, the melting point fell in the range of 208 to 210 °C.

`COC(=O)C(c1ccccc1)(c1ncc[nH]1)c1ccccc1C` (stereo not drawn) yielded a melting point of 148 °C.

`Cc1cccc2c1nc(-c1cccc3ccccc13)n2Cc1c(F)cccc1F`: the melting point fell in the range of 121 to 123 °C.

On to `O=c1[nH]nc(-c2ccc(N=Cc3ccc(O)cc3)cc2)c(O)c1O`, for which the melting point was 233 °C.

On to `O=[N+]([O-])c1ccc(OCC(O)CO)c(O)c1` (stereo not drawn), for which the melting point is 162 °C.

Regarding `COc1ccc(S(=O)(=O)N2C(=O)C(OC(=O)Oc3ccccc3)(c3ccccc3OC(F)(F)F)c3cc(Cl)ccc32)c(OC)c1` (stereo not drawn), the melting point lay within 203 to 204 °C.

Turning to `COc1ncccc1NC(=O)[C@H]1[C@H](c2ccccc2)C1(C)C` (relative stereo), the melting point was in the range of 152 to 154 °C.

`Cc1cccc(N2CCN(CCc3nc4cc(Br)c5ccccc5c4n3C)CC2)c1` came in with a melting point of 155 to 157 °C.

As for `CC(Cc1ccc(Cl)cc1Cl)NC(=O)c1ccccc1C(F)(F)F` (stereo not drawn), the melting point came to 142 °C.

In turn, `CN(C)Cc1ccc(-c2nc(C(=O)Nc3nccs3)c(-c3ccc(Cl)cc3)[nH]2)cc1` yielded a melting point of 143 to 145 °C.

For the compound `Cc1oc(-c2ccccc2)nc1CCCc1ccc(CCCC2OC(=O)NC2=O)cc1` (stereo not drawn), the melting point lay within 119 to 120 °C.

As to `CCC(=O)OCC(OC(=O)CC)c1nc2c(C(F)(F)F)cccc2c(O)c1C(=O)Nc1nccs1` (stereo not drawn), the melting point was found to be 206 °C.

Regarding `C=CC(=O)Nc1cccc(CCCc2n[nH]c3cc(C)nn23)c1`, the melting point fell in the range of 195 to 197 °C.

Turning to `CCOC(=O)c1cnoc1-c1ccc(Cl)s1`, the melting point lay within 74 to 75 °C.

In turn, `C=CCSC(Cc1ccc(Cl)cc1Cl)n1ccnc1` (stereo not drawn) returned a melting point of 97 to 102 °C.

Regarding `Nc1cc(-c2cc(Cl)cc(Cl)c2)cc2nc(-c3ccco3)nn12`, the melting point fell in the range of 257 to 260 °C.

For `CC(C)C(=O)O[C@H]1[C@H](C)OC(=O)[C@@H](NC(=O)OC(C)(C)C)COC(=O)[C@@H]1Cc1ccc(F)cc1`, the melting point lay in the range of 58 to 66 °C.

As for `O=C(O)c1cn(C2COC2)c2c(F)c(F)c(F)cc2c1=O`, the melting point was in the range of 203 to 206 °C.

`CCCCCCCCCCCCCCCCCCOc1cn(C)c(CNCCCO)cc1=O` returned a melting point of 79 to 82 °C.

As to `CC(=O)Nc1ccc(C(C)=O)c(F)c1F`, the melting point was 149 to 152 °C.

The compound `Oc1ccc2c(c1)CC(NCc1ccccc1)CC2` (stereo not drawn) had a melting point of 161 to 163 °C.

The compound `C=CC1(S(=O)(=O)CCS(=O)(=O)CC(O)CS(=O)(=O)CCCl)C=CC=CC1` (stereo not drawn) had a melting point greater than 200 °C.

As for `CC1CN=C(c2cccs2)NO1` (stereo not drawn), the melting point lay in the range of 70 to 72 °C.

For `CN1C=CCC(C(=O)OC2CCC3C4CCC5=CC(=O)CCC5(C)C4CCC23C)=C1` (stereo not drawn), the melting point lay in the range of 172 to 175 °C.

By melting point is commonly meant the temperature, or range, at which the solid turns liquid.

Values taken from a melting point compilation (Tetko et al.; mined from patent text by program, amines drawn as free bases though some values may be those of a salt).
